Source: patent publication US7273848B2, “Apolipoprotein A-I agonists and their use to treat dyslipidemic disorders” (priority 1997, dated 2007)
Non-standard residues stand in square brackets, D forms with d. Residues, ends and D or L forms follow the SMILES beside them. No end group written: not given here. Aib = CC(C)(N)C(=O)O

Molecular target: T1, LCAT (purified from human plasma) (Homo sapiens, UniProt P04180)
T1 construct: from tissue; host or cells: human plasma
T1 sequence (P04180 25-440): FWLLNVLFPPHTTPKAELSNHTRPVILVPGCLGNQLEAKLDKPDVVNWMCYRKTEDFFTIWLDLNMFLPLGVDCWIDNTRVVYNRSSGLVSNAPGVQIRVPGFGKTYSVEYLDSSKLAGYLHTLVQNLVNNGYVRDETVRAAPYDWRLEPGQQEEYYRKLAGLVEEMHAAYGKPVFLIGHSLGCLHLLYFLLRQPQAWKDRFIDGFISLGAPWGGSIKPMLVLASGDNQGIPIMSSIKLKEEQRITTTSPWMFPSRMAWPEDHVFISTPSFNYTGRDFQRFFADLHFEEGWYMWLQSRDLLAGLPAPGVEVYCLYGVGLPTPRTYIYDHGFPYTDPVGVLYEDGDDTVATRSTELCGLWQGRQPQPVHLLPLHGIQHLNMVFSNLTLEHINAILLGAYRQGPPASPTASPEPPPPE
Assay: LCAT activation assay
Assay type: biochemical
Details: LCAT activation as compared with native human ApoA-I (= 100%), equivalent masses
Method: The peptides synthesized as described in Section 6, supra, were analyzed in vitro for their ability to activate LCAT. In the LCAT assay, substrate vesicles (small unilamellar vesicles or “SUVs”) composed of egg phophatidylcholine (EPC) or 1-Palmitoyl-2-oleyl-phosphatidyl-choline (POPC) and radiolabelled cholesterol are preincubated with equivalent masses either of peptide or ApoA-I (isolated from human plasma). The reaction is initiated by addition of LCAT (purified from human plasma). Native ApoA-I, which was used as positive control, represents 100% activation activity. “Specific activity” (i.e., units of activity (LCAT activation)/unit of mass) of the peptides can be calculated as the concentration of peptide that achieves maximum LCAT activation. For example, a series of concentrations of the peptide (e.g., a limiting dilution) can be assayed to determine the “specific activity” for the peptide—the concentration which achieves maximal LCAT activation (i.e., percentage conversion of cholesterol to cholesterol ester) at a specific timepoint in the assay (e.g., 1 hr.). When plotting percentage conversion of cholesterol at, e.g., 1 hr., against the concentration of peptide used, the “specific activity” can be identified as the concentration of peptide that achieves a plateau on the plotted curve.
The vesicles used in the LCAT assay are SUVs composed of egg phosphatidylcholine (EPC) or 1-palmitoyl-2-oleyl-phosphatidylcholine (POPC) and cholesterol with a molar ratio of 20:1. To prepare a vesicle stock solution sufficient for 40 assays, 7.7 mg EPC (or 7.6 mg POPC; 10 μmol), 78 μg (0.2 μmol) 4-^14C-cholesterol, 116 μg cholesterol (0.3 μmol) are dissolved in 5 ml xylene and lyophilized. Thereafter 4 ml of assay buffer is added to the dry powder and sonicated under nitrogen atmosphere at 4° C. Sonication conditions: Branson 250 sonicator, 10 mm tip, 6×5 minutes; Assay buffer: 10 mM Tris, 0.14 M NaCl, 1 mM EDTA, pH 7.4). The sonicated mixture is centrifuged 6 times for 5 minutes each time at 14,000 rpm (16,000×g) to remove titanium particles. The resulting clear solution is used for the enzyme assay.
For the LCAT purification, dextran sulfate/Mg^2+ treatment of human plasma is used to obtain lipoprotein deficient serum (LPDS), which is sequentially chromatographed on Phenylsepharose, Affigelblue, ConcanavalinA sepharose and anti-ApoA-I affinity chromatography, as summarized for a representative purification in TABLE IX, below: […]

Row | Compound | ACTIVITY (%) LCAT [%]
1 | CC(C)C[C@H](NC(=O)[C@H](C)NC(=O)[C@H](CCC(=O)O)NC(=O)[C@H](CC(C)C)NC(=O)C(C)(C)NC(=O)[C@H](CCC(=O)O)NC(=O)[C@H](CCCCN)NC(=O)[C@H](CC(C)C)NC(=O)[C@H](CC(C)C)NC(=O)[C@H](CCC(=O)O)NC(=O)[C@H](CCCNC(=N)N)NC(=O)[C@H](Cc1ccccc1)NC(=O)[C@H](CCC(=O)O)NC(=O)[C@H](CC(=O)O)NC(=O)[C@H](CC(C)C)NC(=O)[C@@H](NC(=O)[C@@H]1CCCN1)C(C)C)C(=O)N[C@@H](CCCCN)C(=O)N[C@@H](CCC(N)=O)C(=O)N[C@@H](CCCCN)C(=O)N[C@@H](CC(C)C)C(=O)N[C@@H](CCCCN)C(=O)O [compound 68, PVLDEFRELLKEXLEALKQKLK] (H-PVLDEFRELLKE[Aib]LEALKQKLK-OH) | 14
2 | PVLDEFREKLNELLEALKQKLK [compound 84] | 7
3 | PVLDLFRELLNELLELLKQKLK [compound 127] | 47
4 | CC(C)C[C@H](NC(=O)[C@H](C)NC(=O)[C@H](CCC(=O)O)NC(=O)[C@H](Cc1c[nH]c2ccccc12)NC(=O)C(C)(C)NC(=O)[C@H](CCC(=O)O)NC(=O)[C@H](Cc1c[nH]c2ccccc12)NC(=O)[C@H](CC(C)C)NC(=O)[C@H](CCCCN)NC(=O)[C@H](CCC(=O)O)NC(=O)[C@H](CCCNC(=N)N)NC(=O)[C@H](Cc1ccccc1)NC(=O)[C@H](CCC(=O)O)NC(=O)[C@H](CC(=O)O)NC(=O)[C@H](CC(C)C)NC(=O)[C@@H](NC(=O)[C@@H]1CCCN1)C(C)C)C(=O)N[C@@H](CCCCN)C(=O)N[C@@H](CCC(N)=O)C(=O)N[C@@H](CCCCN)C(=O)N[C@@H](CC(C)C)C(=O)N[C@@H](CCCCN)C(=O)O [compound 111, PVLDEFREKLWEXWEALKQKLK] (H-PVLDEFREKLWE[Aib]WEALKQKLK-OH) | 0
5 | CC(C)C[C@H](NC(=O)[C@H](C)NC(=O)[C@H](CCC(=O)O)NC(=O)[C@H](CC(C)C)NC(=O)C(C)(C)NC(=O)[C@H](CCC(=O)O)NC(=O)[C@H](CC(N)=O)NC(=O)[C@H](CC(C)C)NC(=O)[C@H](CCCCN)NC(=O)[C@H](CCC(=O)O)NC(=O)[C@H](CCCNC(=N)N)NC(=O)[C@H](Cc1ccccc1)NC(=O)[C@H](CCCCN)NC(=O)[C@H](CC(=O)O)NC(=O)[C@H](CC(C)C)NC(=O)[C@@H](NC(=O)[C@@H]1CCCN1)C(C)C)C(=O)N[C@@H](CCCCN)C(=O)N[C@@H](CCC(N)=O)C(=O)N[C@@H](CCCCN)C(=O)N[C@@H](CC(C)C)C(=O)N[C@@H](CCCCN)C(=O)O [compound 74, PVLDKFREKLNEXLEALKQKLK] (H-PVLDKFREKLNE[Aib]LEALKQKLK-OH) | 10
6 | PVLDLFREKLNEELEALKQKLK [compound 106] | 0
7 | CC(=O)N1CCC[C@@H]1C(=O)N[C@H](C(=O)N[C@@H](CC(C)C)C(=O)N[C@@H](CC(=O)O)C(=O)N[C@@H](CC(C)C)C(=O)N[C@@H](Cc1ccccc1)C(=O)N[C@@H](CCCNC(=N)N)C(=O)N[C@@H](CCC(=O)O)C(=O)N[C@@H](CC(C)C)C(=O)N[C@@H](CC(C)C)C(=O)N[C@@H](CCC(=O)O)C(=O)N[C@@H](CCC(=O)O)C(=O)N[C@@H](CC(C)C)C(=O)N[C@@H](CCCCN)C(=O)N[C@@H](CCC(N)=O)C(=O)N[C@@H](CCCCN)C(=O)N[C@@H](CC(C)C)C(=O)N[C@@H](CCCCN)C(N)=O)C(C)C [compound 214] (Ac-[dP]VLDLFRELLEELKQKLK-NH2) | 39
8 | CC(C)C[C@H](NC(=O)[C@H](C)NC(=O)[C@H](CCC(=O)O)NC(=O)[C@H](CC(C)C)NC(=O)C(C)(C)NC(=O)[C@H](CCC(=O)O)NC(=O)[C@H](Cc1c[nH]c2ccccc12)NC(=O)[C@H](CC(C)C)NC(=O)[C@H](CCCCN)NC(=O)[C@H](CCC(=O)O)NC(=O)[C@H](CCCNC(=N)N)NC(=O)[C@H](Cc1ccccc1)NC(=O)[C@H](CCC(=O)O)NC(=O)[C@H](CC(=O)O)NC(=O)[C@H](CC(C)C)NC(=O)[C@@H](NC(=O)[C@@H]1CCCN1)C(C)C)C(=O)N[C@@H](CCCCN)C(=O)N[C@@H](CCC(N)=O)C(=O)N[C@@H](CCCCN)C(=O)N[C@@H](CC(C)C)C(=O)N[C@@H](CCCCN)C(=O)O [compound 43, PVLDEFREKLWEXLEALKQKLK] (H-PVLDEFREKLWE[Aib]LEALKQKLK-OH) | 25
9 | Ac-PALELFKDLLEELRQRLK-NH2 [compound 208] | 48
10 | PVLELFKELLEELKQKLK [compound 216] | 35
11 | AVLDLFRELLNELLEALKQKLK [compound 29] | 39
12 | Ac-PLLELLKELLEELKQKLK-NH2 [compound 206] | 57
13 | CC(C)C[C@H](NC(=O)[C@H](C)NC(=O)[C@H](CCC(=O)O)NC(=O)[C@H](CC(C)C)NC(=O)C(C)(C)NC(=O)[C@H](CCC(=O)O)NC(=O)[C@H](CC(N)=O)NC(=O)[C@H](CC(C)C)NC(=O)[C@H](CCCCN)NC(=O)[C@H](CCC(=O)O)NC(=O)[C@H](CCCNC(=N)N)NC(=O)[C@H](Cc1ccccc1)NC(=O)[C@H](CCC(=O)O)NC(=O)[C@H](CC(=O)O)NC(=O)[C@H](CC(C)C)NC(=O)[C@H](CCCCN)NC(=O)[C@@H]1CCCN1)C(=O)N[C@@H](CCCCN)C(=O)N[C@@H](CCC(N)=O)C(=O)N[C@@H](CCCCN)C(=O)N[C@@H](CC(C)C)C(=O)N[C@@H](CCCCN)C(=O)O [compound 115, PKLDEFREKLNEXLEALKQKLK] (H-PKLDEFREKLNE[Aib]LEALKQKLK-OH) | 0
14 | CC(C)C[C@H](NC(=O)[C@H](C)NC(=O)[C@H](CCC(=O)O)NC(=O)[C@H](CC(C)C)NC(=O)C(C)(C)NC(=O)[C@H](CCCCN)NC(=O)[C@H](CC(N)=O)NC(=O)[C@H](CC(C)C)NC(=O)[C@H](CCCCN)NC(=O)[C@H](CCC(=O)O)NC(=O)[C@H](CCCNC(=N)N)NC(=O)[C@H](Cc1ccccc1)NC(=O)[C@H](CCC(=O)O)NC(=O)[C@H](CC(=O)O)NC(=O)[C@H](CC(C)C)NC(=O)[C@@H](NC(=O)[C@@H]1CCCN1)C(C)C)C(=O)N[C@@H](CCCCN)C(=O)N[C@@H](CCC(N)=O)C(=O)N[C@@H](CCCCN)C(=O)N[C@@H](CC(C)C)C(=O)N[C@@H](CCCCN)C(=O)O [compound 77, PVLDEFREKLNKXLEALKQKLK] (H-PVLDEFREKLNK[Aib]LEALKQKLK-OH) | 9
15 | DWFKAFYDKVFEKFKEFF [peptide 241, reference compound] | 8
16 | CC(C)C[C@H](NC(=O)[C@H](C)NC(=O)[C@H](CCC(=O)O)NC(=O)[C@H](CC(C)C)NC(=O)C(C)(C)NC(=O)[C@H](CCC(=O)O)NC(=O)[C@H](CC(N)=O)NC(=O)[C@H](CC(C)C)NC(=O)[C@H](CCCCN)NC(=O)[C@H](CCC(=O)O)NC(=O)[C@H](Cc1c[nH]c2ccccc12)NC(=O)[C@H](Cc1ccccc1)NC(=O)[C@H](CCC(=O)O)NC(=O)[C@H](CC(=O)O)NC(=O)[C@H](CC(C)C)NC(=O)[C@@H](NC(=O)[C@@H]1CCCN1)C(C)C)C(=O)N[C@@H](CCCCN)C(=O)N[C@@H](CCC(N)=O)C(=O)N[C@@H](CCCCN)C(=O)N[C@@H](CC(C)C)C(=O)N[C@@H](CCCCN)C(=O)O [compound 73, PVLDEFWEKLNEXLEALKQKLK] (H-PVLDEFWEKLNE[Aib]LEALKQKLK-OH) | 10
17 | CC(C)C[C@H](NC(=O)[C@H](C)NC(=O)[C@H](CCC(=O)O)NC(=O)[C@H](CC(C)C)NC(=O)C(C)(C)NC(=O)[C@H](CC(C)C)NC(=O)[C@H](CC(N)=O)NC(=O)[C@H](CC(C)C)NC(=O)[C@H](CC(C)C)NC(=O)[C@H](CCC(=O)O)NC(=O)[C@H](CCCNC(=N)N)NC(=O)[C@H](Cc1ccccc1)NC(=O)[C@H](CC(C)C)NC(=O)[C@H](CC(=O)O)NC(=O)[C@H](CC(C)C)NC(=O)[C@@H](NC(=O)[C@@H]1CCCN1)C(C)C)C(=O)N[C@@H](CCCCN)C(=O)N[C@@H](CCC(=O)O)C(=O)N[C@@H](CCCCN)C(=O)N[C@@H](CC(C)C)C(=O)N[C@@H](CCCCN)C(=O)O [compound 102, PVLDLFRELLNLXLEALKEKLK] (H-PVLDLFRELLNL[Aib]LEALKEKLK-OH) | 2
